Reference: patent publication EP0128333B1, “Agent for inactivating the mutagenicity of coffee and method therefor” (SUNTORY LIMITED, priority 1983, dated 1984)

Experiments:
[1] = system: Salmonella typhimurium strain TA 100; experiment: Mutagenicity / antimutagenic effect, preincubation Salmonella (Ames) test; details: Salmonella typhimurium strain TA 100 (histidine-requiring), 48 h, pH 7.4
Protocol: • I) Measuring mutagenicity and the antimutagenic effect • (i) Method: • The preincubation method described in Sugimura & Nagao; Chemical Mutagens, Vol. 6, p. 41, 1981 was used. • (ii) Microorganism: • Histidine-requiring Salmonella typhimurium strain TA 100 (hereunder S. TA 100) was used. • (iii) Preparation of samples: • (a) Instant coffee: • Instant coffee powder was dissolved in distilled water. Predetermined amounts of catalase were also dissolved in distilled water, and 50 µl of each solution was mixed with an equal amount of the aqueous coffee solution. • (b) Regular coffee: • Roasted and ground coffee beans (20 g) were extracted with hot distilled water (250 ml), and the extract was filtered through coffee filter paper No. 12 manufactured by Kalita Co., Ltd. The extract was freeze-dried, and after measuring the weight of the dry product, it was dissolved in distilled water. Predetermined amounts of catalase were also dissolved in distilled water, and 50 pl of each solution was mixed with an equal amount of the aqueous solution of coffee concentrate. • (c) Catalase: • A pure isolate from calf liver as manufactured by P-L Biochemicals, Inc. was used. […] After incubation at 37°C for 48 hours, the number of colonies forming on the plate was counted as revertants.

[2] = system: human cells; details: cited from earlier work
[3] = system: Neurospora crassa; details: cited from earlier work
[4] = system: mouse deodenum; details: 0.1 % of hydrogen peroxide; cited from earlier work

**Q.** With `OO` [hydrogen peroxide] as the compound, how does the “mutagenicity to S. TA 100” value [1] read?
**A.** Its value is 160 revertants/108 survivors/pmole.

**Q.** What about the “clastogenic to human cells” value [2] of the same compound?
**A.** The value was “clastogenic”.

**Q.** And the “mutagenic to Neurospora crassa” value [3]?
**A.** The value was “mutagenic”.

**Q.** What about the carcinogenicity [4] of the same compound?
**A.** The carcinogenicity was “cause malignant tumors”.
